Values of other authors in patent US20090041869A1, “METHOD OF REDUCING INSECT RESISTANT PESTS IN […]” (PIONEER HI-BRED INTERNATIONAL, INC., priority 2004, published 2009).
Entries after “also recorded” stand apart in the source; their conditions may differ. Like-named read-outs stand apart in the source and are kept apart here.

Test system: European corn borer, Ostrinia nubilalis
Details: Cry 1F selected colony vs unselected colony, likelihood ratio test at α=0.05

Cry 1Ab: Bt crystal protein toxin assessed for cross resistance
cross resistance of the Cry 1F selected strain to other Bt toxins: No cross resistance; also recorded: does not lead to loss of susceptibility | cross resistance of the Cry 1F selected strain to other Bt toxins (listed as Cry1 Ab): no cross resistance

Cry 1Ac: Bt crystal protein toxin assessed for cross resistance
cross resistance of the Cry 1F selected strain to other Bt toxins: 6.89 fold
